# Legend:
# mast cells = test: Inhibition of mast cells; format: cell-based; conditions: Mast cell
# [1] = test system: brain blood vessel leakage; test: Evans blue extravasation (brain blood vessel leakage) in mice; format: in vivo
# Procedure: Male BALB/6 mice (6 weeks old, Jackson Laboratories, Bar Harbor, ME) were injected in their tail vein with 0.2 ml of Evans blue (0.4%). Binding of Evans blue to the albumin found in the blood prevents Evans blue from escaping the circulation and constitutes a good marker from extravasation in brain parenchyma.
# Brain blood vessel leakage was assessed with Evans blue extravasation at 2 hr following Evans blue and 30 min after intraperitoneal injection of NT. Mice were anesthetized with a single intraperitoneal injection of ketamine/xylazine ([…]), an intracardiac catheter was inserted in the left ventricle, blood was withdrawn, and 10 ml normal saline was administered intracardially to wash any Evans blue from the systemic circulation. The mice were then decapitated and the whole brain was removed. For brain extravasated Evans blue measurements, the brains were first weighed and the Evans blue was then extracted in 1 ml of N,N-dimethylformamide overnight at 55 °C and the optical density was measured at 620 nm using a PerkinElmer Luminescence Spectrophotometer (Perkin Elmer, Norwalk, CT). EB concentration was calculated using a standard curve and values were normalized to the tissue weight and expressed as arbitrary units/mg of tissue. Five animals per group were estimated to be sufficient for significant differences given the variability (<50%) observed. Results of Evans blue/mg tissue were expressed as mean ± SD of percent change from control. This statistical analysis was chosen because it permits the experimental results to be compared to their own control and avoids variability from experiment to experiment. Values were then compared using the non-parametric Mann-Whitney U test. Significance is denoted by p<0.05. In order to induce brain blood vessel leakage, the mice were either treated only with an intraperitoneal injection (0.5 ml) of NT (500 nmol/kg body weight) or first pretreated with the flavonoid luteolin (40 mg/kg body weight) mixed in olive kernel extract to permit solubilization and increased absorption of the lipid-soluble luteolin. The mice not treated with luteolin were pretreated the same way only with the vehicle in order to keep the conditions similar [olive kernel extract, obtained from Minerva Edible Oils, Athens, Greece (http://www.minerva.com.gr/)]. […] When the mice were treated with both IL-33 (1 microg/mouse) and NT, brain leakage was even greater (Fig. 3); IL-33 alone had no effect. Pretreatment with the same amount of luteolin as before inhibited brain blood vessel leakage by 50% (Fig. 3). Using more luteolin could inhibit the synergistic effect of IL-33 and NT.
molecule,measurement,setting,value
O=c1c(O)c(-c2ccc(O)c(O)c2)oc2cc(O)cc(O)c12 [Quercetin],inhibition at 10 µM,mast cells,80%
neurotensin [NT],increase in brain blood vessel leakage,"[1]; intraperitoneal injection of NT 500 nmol/kg body weight, Evans blue extravasation 30 min after NT, percent change from control",150%
O=c1cc(-c2ccc(O)c(O)c2)oc2cc(O)cc(O)c12 [luteolin],inhibition of brain blood vessel leakage,"[1]; Figure 3 legend, intraperitoneal luteolin 10 min prior to injection of IL-33 plus NT",inhibited
same,inhibition of brain blood vessel leakage,"[1]; NT-induced leakage, pretreatment with luteolin 40 mg/kg body weight mixed in olive kernel extract",completely inhibited
same,inhibition of brain blood vessel leakage,"[1]; leakage induced by IL-33 (1 microg/mouse) and NT, pretreatment with luteolin 40 mg/kg body weight",50%
